# Patent US20060189693A1, “Methods of treatment with lxr agonists” (priority 2003, published 2006)
# Columns and labels:
# LXRβ protein = molecular target: T1, LXRβ protein (Homo sapiens, UniProt P55055); settings: 1 μM; over a background reading of 10000 fluorescence units; cited from earlier work
# T1 sequence (P55055 1-460): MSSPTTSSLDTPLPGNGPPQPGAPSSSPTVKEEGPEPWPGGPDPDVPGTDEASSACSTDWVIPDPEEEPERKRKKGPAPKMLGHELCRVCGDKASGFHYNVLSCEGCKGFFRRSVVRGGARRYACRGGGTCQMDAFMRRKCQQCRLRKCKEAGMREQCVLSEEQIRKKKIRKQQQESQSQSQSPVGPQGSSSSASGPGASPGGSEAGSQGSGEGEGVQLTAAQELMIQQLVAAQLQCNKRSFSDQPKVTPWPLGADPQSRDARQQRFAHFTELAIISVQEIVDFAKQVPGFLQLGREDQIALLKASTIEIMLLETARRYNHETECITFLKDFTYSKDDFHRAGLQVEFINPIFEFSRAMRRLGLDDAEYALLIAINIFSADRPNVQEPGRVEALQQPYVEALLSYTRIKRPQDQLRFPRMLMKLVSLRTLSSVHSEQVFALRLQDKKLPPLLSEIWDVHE
# [1] = test system: LV mass (cardiac hypertrophy) of aorta-constricted CD-1 mice; assay: Effect on LV mass in aorta-constricted mice, dose range (Example 4); assay type: in vivo; parameters: unit not given here
# Method: Male CD-1 mice (n=7 per group), 20-25 g in weight, were used for the experiment. Each mouse was anaesthetized with isoflurane 1-2%. Each mouse's aorta was exposed between the two renal arteries and was surgically constricted using a 30-gauge needle and 6.0 suture to induce heart growth. Seven days after surgery, baseline echocardiography was performed on each mouse to establish left ventricular mass (“LV mass”). Enalapril was orally administered to the mice at the dose of 10 mg/kg beginning on day 11 (4 days after baseline) and was continued once daily for 10 days. Formula IIa, suspended in 0.5% MC (vehicle), was orally administered to the mice at the doses of 3.0 mg/kg, 10 mg/kg, or 30 mg/kg once a day beginning on day 11. Formula Ia, suspended in 0.5% MC (vehicle), was orally administered to the mice at the dose of 50 mg/kg once a day beginning on day 11. The control group was administered with vehicle (0.5% MC). Repeat echocardiography was conducted on each mouse 14 and 21 days after surgery.
# [2] = test system: LV mass (cardiac hypertrophy) of aorta-constricted CD-1 mice; assay: Effect on LV mass in aorta-constricted mice (Example 3); assay type: in vivo
# Method: Male CD-1 mice (n=7 per group), 20-25 g in weight, were used for the experiment. Each mouse was anaesthetized with isoflurane 1-2%. Each mouse's aorta was exposed between the two renal arteries and was surgically constricted using a 30-gauge needle and 6.0 suture to induce heart growth. Seven days after surgery, baseline echocardiography was performed on each mouse to establish left ventricular mass (“LV mass”). Enalapril, the gold standard in treating cardiac hypertrophy, was orally administered to the mice at the dose of 10 mg/kg beginning on day 11 (4 days after baseline) and was continued once daily for 10 days. The compound of Formula IIa was suspended in 0.5% methylcellulose (MC) solution (vehicle) and was orally administered to the mice at the doses of 10 mg/kg twice a day, beginning on day 11. The control group was administered with vehicle (0.5% MC) beginning on day 11. Repeat echocardiography was conducted on each mouse 14 and 21 days after surgery.
structure (smiles),measurement,setting,value
"C[C@H](CC[C@@H]1OC1(C)C)[C@H]1CC[C@H]2[C@@H]3CC=C4C[C@@H](O)CC[C@]4(C)[C@H]3CC[C@]12C [24(S), 25-epoxycholesterol]",reading (fluorescence),LXRβ protein,20000 fluorescence units
"CCOC(=O)[C@H](CCc1ccccc1)N[C@@H](C)C(=O)N1CCC[C@H]1C(=O)O [Enalapril, reference compound]",Mean ± SE LV Mass,"[1]; Enalapril 10 mg/kg once daily oral from day 11, 14 days after surgery",95.1 ± 3.90
same,Mean ± SE LV Mass,"[1]; Enalapril 10 mg/kg once daily oral from day 11, 21 days after surgery",91.4 ± 2.48
same,Mean ± SE LV Mass,"[1]; Enalapril group 10 mg/kg once daily oral, 7 days after surgery (baseline, before dosing)",101.02 ± 2.79
same,Mean ± SE LV Mass,"[2]; 10 mg/kg once daily oral from day 11, 14 days after surgery",84.90 ± 1.11
same,LV Mass compared to vehicle,"[2]; 10 mg/kg once daily oral, days 14 and 21, p<0.05",significantly (p<0.05) reduced LV Mass
same,LV Mass compared to baseline hypertrophy (reversal of pathology),"[2]; 10 mg/kg once daily oral, p<0.05",significantly (p<0.05) reversed the pathology
same,Mean ± SE LV Mass,"[2]; Enalapril group 10 mg/kg once daily oral, 7 days after surgery (baseline, before dosing from day 11)",94.09 ± 1.950
"O=C(O)Cc1cccc(OCCCN(Cc2cccc(C(F)(F)F)c2Cl)CC(c2ccccc2)c2ccccc2)c1 [Formula IIa, 2-(3-{3-[[2-Chloro-3-(Trifluoromethyl)Benzyl](2,2-Diphenylethyl)Amino]Propoxy}-Phenyl)Acetic Acid]",Mean ± SE LV Mass,"[1]; 3 mg/kg once a day oral from day 11, 14 days after surgery",106.75 ± 2.43
same,Mean ± SE LV Mass,"[1]; 3 mg/kg once a day oral from day 11, 21 days after surgery",106.54 ± 2.56
same,Mean ± SE LV Mass,"[1]; 3 mg/kg once a day oral group, 7 days after surgery (baseline, before dosing)",98.9 ± 4.59
same,Mean ± SE LV Mass,"[1]; 10 mg/kg once a day oral from day 11, 14 days after surgery",96.31 ± 2.70
same,Mean ± SE LV Mass,"[1]; 10 mg/kg once a day oral from day 11, 21 days after surgery",95.5 ± 2.97
same,Mean ± SE LV Mass,"[1]; 10 mg/kg once a day oral group, 7 days after surgery (baseline, before dosing)",98.01 ± 2.39
same,Mean ± SE LV Mass,"[1]; 30 mg/kg once a day oral from day 11, 14 days after surgery",101.77 ± 2.25
same,Mean ± SE LV Mass,"[1]; 30 mg/kg once a day oral from day 11, 21 days after surgery",101.99 ± 4.00
same,Mean ± SE LV Mass,"[1]; 30 mg/kg once a day oral group, 7 days after surgery (baseline, before dosing)",102.42 ± 2.27
same,Mean ± SE LV Mass,"[2]; 10 mg/kg BID oral from day 11, 14 days after surgery",99.45 ± 1.98
same,Mean ± SE LV Mass,"[2]; 10 mg/kg BID oral from day 11, 21 days after surgery",100.66 ± 2.43
same,further increase in LV Mass,[2]; 10 mg/kg b.i.d. oral,prevented any further increase in LV Mass
same,LV Mass compared to vehicle,"[2]; 10 mg/kg b.i.d. oral, 14 and 21 days after surgery, p<0.05",statistically significant reduction
same,Mean ± SE LV Mass,"[2]; Formula IIa group 10 mg/kg BID oral, 7 days after surgery (baseline, before dosing from day 11)",100.88 ± 2.77
"O=S(=O)(c1ccccc1)N(CC(F)(F)F)c1ccc(C(O)(C(F)(F)F)C(F)(F)F)cc1 [Formula Ia, N-(2,2,2-Trifluoroethyl)-N-[4-(2,2,2-Trifluoro-1-Hydroxy-1-Trifluoromethyl-Ethyl)-Phenyl]-Benzenesulfonamide]",Mean ± SE LV Mass,"[1]; 50 mg/kg once a day oral from day 11, 14 days after surgery",106.56 ± 3.86
same,Mean ± SE LV Mass,"[1]; 50 mg/kg once a day oral group, 7 days after surgery (baseline, before dosing)",101.85 ± 4.75
